This note sets out measurements from patent US20130123481A1, “MODIFIED NUCLEOSIDES, NUCLEOTIDES, AND NUCLEIC ACIDS, AND USES THEREOF” (MODERNA THERAPEUTICS, priority 2011, published 2013).

In one series the test system is HeLa cells. The experiment in a line: In vitro Screening in HeLa Cells - luciferase (RLU). It is filed as cell-based, human. The arrangement: key to Protein (Luc; HeLa): the protein production of HeLa is judged by “+,” “+/−” and “−”; the protein production of HeLa is judged by “+,” “+/−” and “−”; the protein production of HeLa is judged by “+,” “+/−” and “−”. The method, then:
The 2′Fluoro-modified mRNA were then transfected into HeLa cells to assess protein production in a cell context and the same mRNA were also assessed in a cell-free rabbit reticulocyte system. A control of unmodified luciferase (natural luciferase) was used for both transcription experiments, a control of untreated and mock transfected (Lipofectamine 2000 alone) were also analyzed for the HeLa transfection and a control of no RNA was analyzed for the rabbit reticulysates.
For the HeLa transfection experiments, the day before transfection, 20,000 HeLa cells (ATCC no. CCL-2; Manassas, Va.) were harvested by treatment with Trypsin-EDTA solution (LifeTechnologies, Grand Island, N.Y.) and seeded in a total volume of 100 ul EMEM medium (supplemented with 10% FCS and 1× Glutamax) per well in a 96-well cell culture plate (Corning, Manassas, Va.). The cells were grown at […] in 5% CO2 atmosphere overnight. […] Lipofectamine 2000 (LifeTechnologies, Grand Island, N.Y.) was used as transfection reagent and 0.2 ul were diluted in 10 ul final volume of OPTI-MEM. After […] of incubation at room temperature, both solutions were combined and incubated an additional 15 minute at room temperature. Then the 20 ul combined solution was added to the 100 ul cell culture medium containing the HeLa cells and incubated at room temperature. After 18 to 22 hours of incubation cells expressing luciferase were lysed with 100 ul of Passive Lysis Buffer (Promega, Madison, Wis.) according to manufacturer instructions. Aliquots of the lysates were transferred to white opaque polystyrene 96-well plates (Corning, Manassas, Va.) and combined with 100 ul complete luciferase assay solution (Promega, Madison, Wis.). The lysate volumes were adjusted or diluted until no more than 2 mio relative light units (RLU) per well were detected for the strongest signal producing samples and the RLUs for each chemistry tested are shown in Table 42. The plate reader was a BioTek Synergy H1 (BioTek, Winooski, Vt.). The background signal of the plates without reagent was about 200 relative light units per well.
To evaluate using of 2′fluoro-modified mRNA in combination with other modification a series of mRNA were transcribed using either wild-type T7 polymerase (non-fluoro-containing compounds) or using mutant T7 polymerases (fluyoro-containing compounds) as described in Example 86. All modified mRNA were tested by in vitro transfection in HeLa cells.
After 18 to 22 hours of incubation cells expressing luciferase were lysed with 100 ul of Passive Lysis Buffer (Promega, Madison, Wis.) according to manufacturer instructions. Aliquots of the lysates were transferred to white opaque polystyrene 96-well plates (Corning, Manassas, Va.) and combined with 100 ul complete luciferase assay solution (Promega, Madison, Wis.). The lysate volumes were adjusted or diluted until no more than 2 mio relative light units (RLU) per well were detected for the strongest signal producing samples and the RLUs for each chemistry tested are shown in Table 44. The plate reader was a BioTek Synergy H1 (BioTek, Winooski, Vt.). The background signal of the plates without reagent was about 200 relative light units per well.

The next series has as its target wild-type T7 polymerase (Escherichia phage T7, UniProt P00573). The experiment in a line: In Vitro Transcription with Wild-Type T7 Polymerase (transcription and capping yield). The settings on record: Table 48 non-naturally occurring, Pass/Fail. The method, then:
(§1) The luciferase and G-CSF modified mRNA were also subjected to an enzymatic capping reaction and each modified mRNA capping reaction was evaluated for yield by spectrophometic measurement (OD260) and correct size assessed using bioanalyzer.

Series [1] has as its target T1, mutant T7 polymerase (Durascribe T7 Transcription kit) (Escherichia phage T7, UniProt P00573, Y639F).
T1 construct: purchased Epicentre, Madison, Wis; DS010925
The conditions noted are these: Table 48 non-naturally occurring, in vitro transcription using mutant T7 polymerase. The method, then:
as §1

The subject of another series is female BALB/C mice. The experiment in a line: In Vivo Detection of Innate Immune Response Study - human G-CSF protein in serum. The conditions noted are these: human G-CSF in mouse serum; I.M.; 8 hours after dosing. How it is done: Blood is collected at 8 hours after dosing.
In series [2] the test system is PBMC, interferon-alpha (IFN-alpha). The experiment in a line: 2′Fluoro Chemistries in PBMC - IFN-alpha production. The settings on record: G-CSF modified mRNA, ELISA, average of 3 donors. It is filed as cell-based, human.
In series [3] the test system is PBMC, tumor necrosis factor-alpha (TNF-alpha). The experiment in a line: 2′Fluoro Chemistries in PBMC - TNF-alpha production. The conditions noted are these: G-CSF modified mRNA, ELISA, average of 2 donors. It is filed as cell-based, human.
The subject of series [4] is human PBMC, tumor necrosis factor alpha (TNF-alpha).
Series [5] concerns female BALB/C mice, interferon-alpha (IFN-alpha). The settings on record: mouse, in vivo.
The subject of series [6] is Rabbit Reticulocyte Lysate. The experiment in a line: In Vitro Screening in Rabbit Reticulocyte Lysates - luciferase (RLU). The class given is biochemical. The conditions noted are these: 250 ng 2′-fluoro-containing luciferase mRNA, 60 minutes, 30° C., background about 160 RLU. How it is done:
The diluted luciferase was added to 40 ul of freshly prepared Rabbit Reticulocyte Lysate and the in vitro translation reaction was done in a standard 1.5 mL polypropylene reaction tube (Thermo Fisher Scientific, Waltham, Mass.) at 30° C. in a dry heating block. The translation assay was done with the Rabbit Reticulocyte Lysate (nuclease-treated) kit (Promega, Madison, Wis.) according to the manufacturer's instructions. The reaction buffer was supplemented with a one-to-one blend of provided amino acid stock solutions devoid of either Leucine or Methionine resulting in a reaction mix containing sufficient amounts of both amino acids to allow effective in vitro translation.
After 60 minutes of incubation, the reaction was stopped by placing the reaction tubes on ice. […] The volumes of the in vitro translation reactions were adjusted or diluted until no more than 2 mio relative light units (RLUs) per well were detected for the strongest signal producing samples and the RLUs for each chemistry tested are shown in Table 29. The plate reader was a BioTek Synergy H1 (BioTek, Winooski, Vt.). […]
The 2′Fluoro-modified mRNA were then transfected into HeLa cells to assess protein production in a cell context and the same mRNA were also assessed in a cell-free rabbit reticulocyte system. […]

A further series deals with human PBMC. The experiment in a line: Cytokine Study: PBMC - G-CSF production (G-CSF ELISA). The class given is cell-based. The settings on record: mRNA with Lipofectamine 2000. How it is done:
(§2) The plates were then incubated at 37° C.
(§3) Each condition was done in duplicate.
In the G-CSF ELISA, background signal from the Lipofectamine 2000 (LF2000) untreated condition was subtracted at each time point.
(An ELISA detects its analyte on a solid surface through an enzyme-linked reagent.)

Series [7] concerns human PBMC, interferon-alpha (IFN-alpha). The experiment in a line: Cytokine Study: PBMC - IFN-alpha production (ELISA). The method, then: as §2, §3
The test system of series [8] is female BALB/C mice, interferon-alpha (IFN-alpha). The experiment in a line: In Vivo Detection of Innate Immune Response Study - mouse IFN-alpha in serum.

Like-named read-outs stand apart in the source and are kept apart here.

T1 sequence (P00573 whole entry Y639F): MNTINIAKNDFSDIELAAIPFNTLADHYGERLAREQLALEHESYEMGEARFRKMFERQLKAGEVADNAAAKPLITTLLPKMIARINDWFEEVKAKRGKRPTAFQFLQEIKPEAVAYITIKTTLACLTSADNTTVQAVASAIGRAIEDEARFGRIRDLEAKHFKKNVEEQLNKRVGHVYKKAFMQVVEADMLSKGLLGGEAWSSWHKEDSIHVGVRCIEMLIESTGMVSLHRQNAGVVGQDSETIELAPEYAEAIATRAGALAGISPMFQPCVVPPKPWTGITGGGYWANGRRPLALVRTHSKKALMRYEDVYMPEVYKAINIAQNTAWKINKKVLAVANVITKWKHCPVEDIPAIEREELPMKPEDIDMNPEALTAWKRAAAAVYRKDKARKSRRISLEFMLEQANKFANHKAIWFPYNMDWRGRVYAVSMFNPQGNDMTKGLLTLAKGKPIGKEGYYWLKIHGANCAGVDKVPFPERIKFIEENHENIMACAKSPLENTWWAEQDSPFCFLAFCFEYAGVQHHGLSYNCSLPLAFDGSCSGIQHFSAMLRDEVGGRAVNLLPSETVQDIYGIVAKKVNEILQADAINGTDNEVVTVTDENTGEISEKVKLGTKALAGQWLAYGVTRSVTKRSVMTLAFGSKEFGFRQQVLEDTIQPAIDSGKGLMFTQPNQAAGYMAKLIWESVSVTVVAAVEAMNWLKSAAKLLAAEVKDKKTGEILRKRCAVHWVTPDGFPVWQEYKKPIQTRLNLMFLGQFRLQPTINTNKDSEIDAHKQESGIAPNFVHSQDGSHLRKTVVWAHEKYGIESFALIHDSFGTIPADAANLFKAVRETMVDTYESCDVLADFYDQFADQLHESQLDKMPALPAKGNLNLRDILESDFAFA
wild-type T7 polymerase, sequence (P00573 whole entry): as the sequence (P00573 whole entry Y639F) above, with F639Y counted along it

2′-F-adenosine: the “Protein (Luc; HeLa)” value with HeLa cells (Table 48 non-naturally occurring, ** mutant T7 polymerase) is given as “−**”. Besides, the “IVT (G-CSF), first result” value at wild-type T7 polymerase (G-CSF mRNA in vitro transcription) is “Fail/Fail**”. The “IVT (Luc), first result” value at wild-type T7 polymerase (luciferase mRNA in vitro transcription) is “Fail”. Moreover, in series [1], the “IVT (G-CSF), second result **” value is reported as “Fail/Fail**” and the “IVT (Luc), second result **” value is “Pass”.

In turn, `CCOCc1nc2c(N)nc3ccccc3c2n1CC(C)(C)O` [Compound R-848] displayed a G-CSF protein in the series with female BALB/C mice of 3.4 pg/mL. In [2], the “IFN-alpha: 3 Donor Average” value was 45 pg/mL. Also, the “TNF-alpha: 2 Donor Average (pg/ml)” value in series [3] is listed as 8,235 pg/ml. For the same molecule, the “TNF-alpha: 3 Donor Average” value in series [4] was 1477 pg/mL. In series [5], this molecule yielded an IFN-alpha expression of 40.97 pg/mL.

For the molecule “Natural Luciferase: natural luciferase mRNA (SEQ ID NO: 3), Cap1 [reference compound]”, the RLU is 133,853.5 RLU with HeLa cells (83 ng 2′fluoro-containing luciferase mRNA, Lipofectamine 2000, HeLa cells); 30,801 RLU in the series on HeLa cells (83 ng luciferase mRNA with combination of modifications, HeLa cells, 18 to 22 hours, background about 200 RLU); 2,159,968 RLU in series [6].

B1: G-CSF 5-methyl cytosine/pseudouridine: mRNA encoding human G-CSF (SEQ ID NO: 1), Cap 1, 100% substitution with 5-methyl cytidine and pseudouridine (nucleic acid, listed as Homo Sapiens)
chain: GGGAAAUAAGAGAGAAAAGAAGAGUAAGAAGAAAUAUAAGAGCCACCAUGGCCGGUCCCGCGACCCAAAGCCCCAUGAAACUUAUGGCCCUGCAGUUGCUGCUUUGGCACUCGGCCCUCUGGACAGUCCAAGAAGCGACUCCUCUCGGACCUGCCUCAUCGUUGCCGCAGUCAUUCCUUUUGAAGUGUCUGGAGCAGGUGCGAAAGAUUCAGGGCGAUGGAGCCGCACUCCAAGAGAAGCUCUGCGCGACAUACAAACUUUGCCAUCCCGAGGAGCUCGUACUGCUCGGGCACAGCUUGGGGAUUCCCUGGGCUCCUCUCUCGUCCUGUCCGUCGCAGGCUUUGCAGUUGGCAGGGUGCCUUUCCCAGCUCCACUCCGGUUUGUUCUUGUAUCAGGGACUGCUGCAAGCCCUUGAGGGAAUCUCGCCAGAAUUGGGCCCGACGCUGGACACGUUGCAGCUCGACGUGGCGGAUUUCGCAACAACCAUCUGGCAGCAGAUGGAGGAACUGGGGAUGGCACCCGCGCUGCAGCCCACGCAGGGGGCAAUGCCGGCCUUUGCGUCCGCGUUUCAGCGCAGGGCGGGUGGAGUCCUCGUAGCGAGCCACCUUCAAUCAUUUUUGGAAGUCUCGUACCGGGUGCUGAGACAUCUUGCGCAGCCGUGAAGCGCUGCCUUCUGCGGGGCUUGCCUUCUGGCCAUGCCCUUCUUCUCUCCCUUGCACCUGUACCUCUUGGUCUUUGAAUAAAGCCUGAGUAGGAAG
modifications: Cap1; 5-methylcytidine and pseudouridine
For the molecule B1, in the series on human PBMC, the “G-CSF: 3 Donor Average” value is 4742 pg/mL. Moreover, in series [7], the “IFN-alpha production (in words)” value was “low but detectable levels” and the “IFN-alpha: 3 Donor Average” value was found to be 141 pg/mL. Further, the “G-CSF/IFN-alpha (ratio), PC Ratio” value in series [7] (human PBMC, 3 donor averages) was found to be 34. Also, in series [4], the “TNF-alpha production (in words)” value was “low but detectable levels” and the “TNF-alpha: 3 Donor Average” value was 31 pg/mL. Besides, the “G-CSF/TNF-alpha (ratio), PC Ratio” value in series [4] (human PBMC, 3 donor averages) is 153.

B2: GCSF mRNA unmod: G-CSF mRNA (SEQ ID NO: 1) unmodified, 5′ cap of Cap1 (nucleic acid, listed as Homo Sapiens)
chain: GGGAAAUAAGAGAGAAAAGAAGAGUAAGAAGAAAUAUAAGAGCCACCAUGGCCGGUCCCGCGACCCAAAGCCCCAUGAAACUUAUGGCCCUGCAGUUGCUGCUUUGGCACUCGGCCCUCUGGACAGUCCAAGAAGCGACUCCUCUCGGACCUGCCUCAUCGUUGCCGCAGUCAUUCCUUUUGAAGUGUCUGGAGCAGGUGCGAAAGAUUCAGGGCGAUGGAGCCGCACUCCAAGAGAAGCUCUGCGCGACAUACAAACUUUGCCAUCCCGAGGAGCUCGUACUGCUCGGGCACAGCUUGGGGAUUCCCUGGGCUCCUCUCUCGUCCUGUCCGUCGCAGGCUUUGCAGUUGGCAGGGUGCCUUUCCCAGCUCCACUCCGGUUUGUUCUUGUAUCAGGGACUGCUGCAAGCCCUUGAGGGAAUCUCGCCAGAAUUGGGCCCGACGCUGGACACGUUGCAGCUCGACGUGGCGGAUUUCGCAACAACCAUCUGGCAGCAGAUGGAGGAACUGGGGAUGGCACCCGCGCUGCAGCCCACGCAGGGGGCAAUGCCGGCCUUUGCGUCCGCGUUUCAGCGCAGGGCGGGUGGAGUCCUCGUAGCGAGCCACCUUCAAUCAUUUUUGGAAGUCUCGUACCGGGUGCUGAGACAUCUUGCGCAGCCGUGAAGCGCUGCCUUCUGCGGGGCUUGCCUUCUGGCCAUGCCCUUCUUCUCUCCCUUGCACCUGUACCUCUUGGUCUUUGAAUAAAGCCUGAGUAGGAAG
modifications: Cap1
B2 showed a G-CSF protein with female BALB/C mice of 605.6 pg/mL. The “PC Ratio” value in series [8] (G-CSF protein / IFN-alpha in mouse serum) came to 9. This molecule also had an IFN-alpha expression in series [8] (mouse IFN-alpha in serum, I.M., 8 hours after dosing) of 67.01 pg/mL.
